Source: the NIST ThermoML archive (doi:10.1016/j.jct.2006.07.025)
Numbers after ± are expanded uncertainties.

Assay: xn = mol fraction of the nth substance listed
Conditions: for surface tension liquid-gas: Pendant drop shape; for mass density: 101 kPa, Liquid, Vibrating tube method

Cc1ccc(C)c(C)c1 [1,2,4-trimethylbenzene] + CCCCOC(C)=O
Conditions	mass density [kg/m3]	surface tension liquid-gas [mN/m]
298.15 K, x2 = 0	871.66 ± 0.19	29.17 ± 0.33
298.15 K, x2 = 0.0563	871.92 ± 0.19	–
298.15 K, x2 = 0.0998	–	28.68 ± 0.32
298.15 K, x2 = 0.1045	872.14 ± 0.18	–
298.15 K, x2 = 0.1496	872.35 ± 0.18	–
298.15 K, x2 = 0.1996	872.58 ± 0.18	–
298.15 K, x2 = 0.2001	–	28.2 ± 0.31
298.15 K, x2 = 0.2533	872.82 ± 0.17	–
298.15 K, x2 = 0.2994	–	27.73 ± 0.31
298.15 K, x2 = 0.2998	873.03 ± 0.17	–
298.15 K, x2 = 0.3552	873.27 ± 0.17	–
298.15 K, x2 = 0.3998	873.46 ± 0.16	–
298.15 K, x2 = 0.4003	–	27.25 ± 0.3
298.15 K, x2 = 0.45	873.68 ± 0.16	–
298.15 K, x2 = 0.4958	–	26.78 ± 0.3
298.15 K, x2 = 0.5001	873.9 ± 0.16	–
298.15 K, x2 = 0.5503	874.11 ± 0.16	–
298.15 K, x2 = 0.5995	874.32 ± 0.15	–
298.15 K, x2 = 0.6001	–	26.33 ± 0.29
298.15 K, x2 = 0.6495	874.54 ± 0.15	–
298.15 K, x2 = 0.6998	874.75 ± 0.15	–
298.15 K, x2 = 0.6999	–	25.93 ± 0.29
298.15 K, x2 = 0.7495	874.97 ± 0.15	–
298.15 K, x2 = 0.7998	–	25.57 ± 0.28
298.15 K, x2 = 0.7999	875.2 ± 0.2	–
298.15 K, x2 = 0.8499	875.43 ± 0.14	–
298.15 K, x2 = 0.8989	875.67 ± 0.14	–
298.15 K, x2 = 0.8997	–	25.23 ± 0.28
298.15 K, x2 = 0.9478	875.91 ± 0.14	–
303.15 K, x2 = 0	867.61 ± 0.19	28.67 ± 0.32
303.15 K, x2 = 0.1001	867.99 ± 0.18	28.18 ± 0.31
303.15 K, x2 = 0.2009	868.38 ± 0.18	27.69 ± 0.31
303.15 K, x2 = 0.3006	868.73 ± 0.17	27.22 ± 0.3
303.15 K, x2 = 0.4001	869.1 ± 0.17	26.73 ± 0.3
303.15 K, x2 = 0.5004	869.45 ± 0.16	26.27 ± 0.29
303.15 K, x2 = 0.6006	869.81 ± 0.16	25.8 ± 0.29
303.15 K, x2 = 0.7001	870.15 ± 0.15	25.4 ± 0.28
303.15 K, x2 = 0.7997	870.43 ± 0.15	25.03 ± 0.28
303.15 K, x2 = 0.9	870.91 ± 0.14	24.7 ± 0.27
308.15 K, x2 = 0	863.59 ± 0.19	28.17 ± 0.32
308.15 K, x2 = 0.1005	863.87 ± 0.18	27.67 ± 0.31
308.15 K, x2 = 0.1998	864.16 ± 0.18	27.18 ± 0.3
308.15 K, x2 = 0.3004	864.42 ± 0.17	26.7 ± 0.3
308.15 K, x2 = 0.4003	864.67 ± 0.17	26.21 ± 0.29
308.15 K, x2 = 0.5007	864.93 ± 0.16	25.75 ± 0.29
308.15 K, x2 = 0.5991	865.17 ± 0.16	25.28 ± 0.28
308.15 K, x2 = 0.6995	865.43 ± 0.15	24.87 ± 0.28
308.15 K, x2 = 0.7999	865.68 ± 0.15	24.5 ± 0.27
308.15 K, x2 = 0.9004	865.94 ± 0.14	24.16 ± 0.27
313.15 K, x2 = 0	859.54 ± 0.19	27.67 ± 0.31
313.15 K, x2 = 0.0499	859.66 ± 0.19	–
313.15 K, x2 = 0.1002	859.76 ± 0.19	27.12 ± 0.31
313.15 K, x2 = 0.1503	859.87 ± 0.18	–
313.15 K, x2 = 0.1995	859.98 ± 0.18	26.55 ± 0.3
313.15 K, x2 = 0.25	860.08 ± 0.18	–
313.15 K, x2 = 0.3	860.19 ± 0.17	26.02 ± 0.29
313.15 K, x2 = 0.35	860.28 ± 0.17	–
313.15 K, x2 = 0.3996	860.37 ± 0.17	25.48 ± 0.29
313.15 K, x2 = 0.4499	860.46 ± 0.16	–
313.15 K, x2 = 0.5002	860.56 ± 0.16	24.99 ± 0.28
313.15 K, x2 = 0.5499	860.65 ± 0.16	–
313.15 K, x2 = 0.5998	860.73 ± 0.16	24.55 ± 0.28
313.15 K, x2 = 0.6503	860.82 ± 0.15	–
313.15 K, x2 = 0.6999	860.91 ± 0.15	24.2 ± 0.27
313.15 K, x2 = 0.7499	861.01 ± 0.15	–
313.15 K, x2 = 0.8004	861.1 ± 0.15	23.9 ± 0.27
313.15 K, x2 = 0.85	861.21 ± 0.15	–
313.15 K, x2 = 0.9005	861.33 ± 0.15	23.62 ± 0.27
313.15 K, x2 = 0.9496	861.45 ± 0.14	–

Cc1ccc(C)c(C)c1 [1,2,4-trimethylbenzene] + CCCOC(C)=O
Conditions	mass density [kg/m3]	surface tension liquid-gas [mN/m]
298.15 K, x2 = 0	871.66 ± 0.19	29.17 ± 0.33
298.15 K, x2 = 0.0607	872.13 ± 0.19	–
298.15 K, x2 = 0.1002	872.45 ± 0.19	28.61 ± 0.32
298.15 K, x2 = 0.1578	872.95 ± 0.18	–
298.15 K, x2 = 0.2008	873.32 ± 0.18	28.06 ± 0.31
298.15 K, x2 = 0.2518	873.78 ± 0.18	–
298.15 K, x2 = 0.302	874.24 ± 0.17	27.51 ± 0.31
298.15 K, x2 = 0.3504	874.71 ± 0.17	–
298.15 K, x2 = 0.4003	875.2 ± 0.17	26.97 ± 0.3
298.15 K, x2 = 0.4568	875.78 ± 0.17	–
298.15 K, x2 = 0.4993	876.23 ± 0.17	26.44 ± 0.3
298.15 K, x2 = 0.549	876.77 ± 0.16	–
298.15 K, x2 = 0.6006	877.36 ± 0.16	25.93 ± 0.29
298.15 K, x2 = 0.6494	877.93 ± 0.16	–
298.15 K, x2 = 0.7006	878.55 ± 0.16	25.44 ± 0.28
298.15 K, x2 = 0.7493	879.16 ± 0.16	–
298.15 K, x2 = 0.7991	879.8 ± 0.15	24.96 ± 0.28
298.15 K, x2 = 0.8497	880.49 ± 0.15	–
298.15 K, x2 = 0.8991	881.17 ± 0.15	24.48 ± 0.27
298.15 K, x2 = 0.9464	881.86 ± 0.15	–
303.15 K, x2 = 0	867.61 ± 0.19	28.67 ± 0.32
303.15 K, x2 = 0.0982	868.25 ± 0.19	28.09 ± 0.31
303.15 K, x2 = 0.1994	868.98 ± 0.18	27.53 ± 0.31
303.15 K, x2 = 0.3006	869.76 ± 0.18	26.96 ± 0.3
303.15 K, x2 = 0.3996	870.56 ± 0.17	26.4 ± 0.3
303.15 K, x2 = 0.503	871.46 ± 0.17	25.86 ± 0.29
303.15 K, x2 = 0.6003	872.41 ± 0.16	25.34 ± 0.28
303.15 K, x2 = 0.6979	873.41 ± 0.16	24.83 ± 0.28
303.15 K, x2 = 0.7993	874.52 ± 0.15	24.34 ± 0.27
303.15 K, x2 = 0.8992	875.72 ± 0.15	23.86 ± 0.27
308.15 K, x2 = 0	863.59 ± 0.19	28.17 ± 0.32
308.15 K, x2 = 0.0986	864.07 ± 0.19	27.57 ± 0.31
308.15 K, x2 = 0.1998	864.65 ± 0.18	26.99 ± 0.3
308.15 K, x2 = 0.3028	865.29 ± 0.18	26.41 ± 0.3
308.15 K, x2 = 0.4004	865.93 ± 0.17	25.83 ± 0.29
308.15 K, x2 = 0.5036	866.67 ± 0.17	25.27 ± 0.29
308.15 K, x2 = 0.6003	867.44 ± 0.16	24.74 ± 0.28
308.15 K, x2 = 0.6977	868.27 ± 0.16	24.22 ± 0.27
308.15 K, x2 = 0.8	869.22 ± 0.16	23.72 ± 0.27
308.15 K, x2 = 0.9005	870.23 ± 0.15	23.23 ± 0.26
313.15 K, x2 = 0	859.54 ± 0.19	27.67 ± 0.31
313.15 K, x2 = 0.0497	859.64 ± 0.19	–
313.15 K, x2 = 0.0998	859.82 ± 0.19	–
313.15 K, x2 = 0.1005	–	27.05 ± 0.31
313.15 K, x2 = 0.15	860.01 ± 0.18	–
313.15 K, x2 = 0.2001	860.24 ± 0.18	26.46 ± 0.3
313.15 K, x2 = 0.2498	860.45 ± 0.18	–
313.15 K, x2 = 0.2999	860.71 ± 0.18	25.86 ± 0.29
313.15 K, x2 = 0.35	860.98 ± 0.17	–
313.15 K, x2 = 0.4001	861.25 ± 0.17	25.26 ± 0.29
313.15 K, x2 = 0.4503	861.53 ± 0.17	–
313.15 K, x2 = 0.4997	861.83 ± 0.17	–
313.15 K, x2 = 0.4998	–	24.69 ± 0.28
313.15 K, x2 = 0.5502	862.15 ± 0.17	–
313.15 K, x2 = 0.6001	862.48 ± 0.16	24.15 ± 0.27
313.15 K, x2 = 0.6499	862.81 ± 0.16	–
313.15 K, x2 = 0.7	863.18 ± 0.16	–
313.15 K, x2 = 0.7002	–	23.61 ± 0.27
313.15 K, x2 = 0.7503	863.54 ± 0.16	–
313.15 K, x2 = 0.7998	863.94 ± 0.16	23.1 ± 0.26
313.15 K, x2 = 0.85	864.35 ± 0.15	–
313.15 K, x2 = 0.9002	864.79 ± 0.15	22.61 ± 0.26
313.15 K, x2 = 0.9495	865.18 ± 0.15	–
